According to patent publication US12344620B2, “BRD4 inhibitor compound in solid form and preparation method therefor and use thereof” (CSPC ZHONGQI PHARMACEUTICAL TECHNOLOGY (SHIJIAZHUANG) CO., …, priority 2019, dated 2025):

Key:
[1] = Hygroscopicity study by dynamic vapor sorption (DVS); format: physicochemical; settings: 25° C. and 80% RH
Method: • Instrument model: SMS DVS advantage dynamic vapor sorption analyzer • Testing conditions: the sample (10-20 mg) was placed in DVS sample trays for testing. Detailed DVS Parameters: • Temperature: 25° C. • Balancing: dm/dt=0.01%/min (shortest: 10 min, longest: 180 min) • Drying: drying for 120 min at 0% RH • RH (%) testing step: 10% • RH (%) testing step range: 0%-90%-0%
The evaluation of hygroscopicity was classified as follows:
• 10-15 mg of the crystalline form A of the compound of formula (I) was placed on a DVS sample tray for testing.

[2] = Solid stability test of the crystalline form A; format: physicochemical

Cc1sc2c(c1C)C(c1ccc(Cl)cc1)=N[C@@H](CC(=O)Nc1ccc3c(c1)COC3=O)c1nnc(C)n1-2
Moisture absorption classification [1]: slightly hygroscopic
ΔW, increase in weight by moisture sorption [1]: 1.789%
Appearance ([2]; 0 day (initial)): White
Content ([2]; 0 day (initial)): 98.7%
Crystalline form (XRPD) ([2]; 0 day (initial)): form A
Total impurity ([2]; 0 day (initial)): 0.17%
Appearance ([2]; 25° C./60% RH, sealed, 90 days): White
Content ([2]; 25° C./60% RH, sealed, 90 days): 99.4%
Crystalline form (XRPD) ([2]; 25° C./60% RH, sealed, 90 days): form A
Total impurity ([2]; 25° C./60% RH, sealed, 90 days): 0.12%
Appearance ([2]; 40° C./75% RH, sealed, 90 days): White
Content ([2]; 40° C./75% RH, sealed, 90 days): 99.2%
Crystalline form (XRPD) ([2]; 40° C./75% RH, sealed, 90 days): form A
Total impurity ([2]; 40° C./75% RH, sealed, 90 days): 0.19%
Solid stability (conclusion) ([2]; accelerated and prolonged conditions, 90 days): good stability
